We go through two compounds from patent publication US5496855A, “Anti-inflammatory compounds” (SmithKline Beecham Corp., priority 1995, dated 1996).

Each structure is given as a SMILES string. pIC50: −log10 of the molar value.

Experiment [1] has as its system human neutrophils. The experiment can be described thus: Assay (c): Arachidonic acid release assay, A23187-stimulated neutrophils. Type of experiment: cell-based. The note with it: at levels greater than 10 uM. As for the experimental part: Human neutrophils are obtained in the laboratory using three different methods. One method uses leukophoresis packs from normal humans and neutrophils are isolated using the histopaque-1077 technique. The blood is centrifuged at 300×g for 10 minutes. The cell pellets are resuspended in PBS composed of 137 mM NaCl, 8.8 mM Na2HPO4, 1.5 mM KH2PO4, 2.7 mM KCI (Dulbecco's Gibco Laboratories, Long Island, N.Y.) and layered over histopaque-1077 (Sigma, St. Louis, Mo.). The pellets are collected after centrifugation (300×g for 30 minutes) and washed once in PBS. The cell pellets are exposed briefly to deionized water to lyse any erythrocytes. The remaining cells are collected by centrifugation, suspended in PBS, counted and identified after cytospinning and staining. The final leukocyte preparation will be of greater than 95% purity and viability.
The second method isolates human neutrophils from fresh heparinized normal blood using the Histopaque-1077 technique. […] The remaining cells are collected by centrifugation, suspended in PBS, counted and identified after cytospinning and staining. […]
The third method isolates human neutrophils from freshly drawn heparinized normal blood using the Percoil technique. […] The neutrophils are suspended in PBS, counted and identified after cytospinning and staining. […]

Experiment [2] relates to Arachidonic acid induced ear inflammation. The experiment in a line: Assay (h): Arachidonic acid induced ear inflammation (ear edema, MPO). Type of experiment: in vivo, mouse. The note with it: 1 mg/ear. As for the experimental part:
Male Balb/c inbred mice are obtained from Charle River Breeding Laboratories (Kingston, N.Y.). Within a single experiment mice (22-25 g) are age-matched. These in vivo experiments typically involve the use of 5-6 animals/group.
On the day of the assay, partially thawed ear tissues are minced and then homogenized (10% w/v) with a Tissumizer homogenizer (Tekmar Co.) in 50 mM phosphate buffer (pH 6) containing 0.5% HTAB. The tissue homogenates are taken through three cycles of freeze-thaw, followed by brief sonication (10 sec). The method of Bradley et at. is used with modifications as described. […] Supernatant MPO activity is quantified kinetically (change in absorbance measured over 3 min, sampled at 15-sec intervals) using a Beckman DU-7 spectrophotometer and a Kinetics Analysis package (Beckman Instruments, Inc.). One unit of MPO activity is defined as that degrading one micromole of peroxide per minute at 25° C.
Arachidonic acid is dissolved in acetone (1 mg/ear) to the left ear of BALB/c male mice. The thickness of both cars is measured with a constant pressure thickness guage 1 hour after treatment and the data expressed as the change in thickness between treated and untreated ears. Test compounds or vehicle are given at the time of AA application. The inflammatory cell infiltration is measured by MPO activity as described above in the TPA ear edema assay. After the edema measurements are made, the inflamed ears are removed and assayed for MPO activity.

The subject of experiment [3] is human neutrophils. The experiment in a line: Assay (d): Production of platelet-activating factor (PAF), A23187-stimulated neutrophils. The format is cell-based. As for the experimental part:
Blood is obtained from normal humans and neutrophils are isolated as described for the arachidonic acid release assay, above. The final leukocyte preparation should be of greater than 95% purity and viability.
Neutrophils are suspended in PBS at concentrations of 5 to 20×10^6 cells per ml. Cells are added to test tubes and treated with the desired compounds for 5 to 10 minutes, then challenged with calcium ionophore A23187, 2 μM and 20-30 μCi of [3H]acetic acid (NEN-Dupont, Boston, Mass.), or the vehicle of PBS with 0.25-1 mg/ml. After 5 to 20 minutes, the reactions are terminated by addition of an equal volume of chloroform:methanol (1:2, v/v) to the samples and the lipiris are extracted by addition of equal volumes of chloroform and distilled water. The samples are vortexed and centrffuged at high speed and the chloroform layer removed to a clean tube.
The chloroform from each tube is evaporated to dryness and the material suspended in a small volume of chloroform or chloroform:methanol (25-100 μl) and the total material spotted on a Silica TLC plate. The plates are developed in chloroform/methanol/acetic acid/water (50:25:8:4, v/v) visualized by radioscanning (Bioscan) and the product, [^3 H]PAF, is scraped and quantified by liquid scintillation spectroscopy. With this TLC system, the Rf value for a synthetic standard of PAF is approximately 0.33.

For the compound `NC(=O)N(O)CCC(CSc1ccc(Cc2ccccc2)cc1)NC(=O)CCCCCCc1ccccc1` (racemic) [Example 1, N-[3-(7-phenylheptylamido)-4-(4-phenylmethyl)phenylthio]-butyl-N-hydroxy urea], the “inhibitory activity in arachidonic acid release assay” value with human neutrophils [1] was “weak inhibitory activity”. Besides, in experiment [2], the “MPO, AA ear model” value is -53% and the “reduction in ear swelling, AA ear model” value is reported as -36%. Moreover, the negative-log IC50 (pIC50) (as a rule, the IC50 on a negative log10 scale, so that one unit is a factor of ten) with human neutrophils [3] (Neutrophil, human neutrophils, A23187) was ~5.00.

With `N#CCC(CSc1ccc(Cc2ccccc2)cc1)NC(=O)CCCCCCc1ccccc1` (stereo not drawn) [Example 2, [3-(7-Phenylheptylamido)-4-(4-phenylmethyl)phenylthio]butylnitrile], the “inhibitory activity in arachidonic acid release assay” value in the experiment with human neutrophils [1] was “weak inhibitory activity”. Further, the “inhibitory activity in PAF production assay” value in the experiment with human neutrophils [3] (at greater than 30 uM) is “did not demonstrate positivr activity”.
